Assay results as given in PMC6773865, “Functional recruitment of dynamin requires multimeric interactions for efficient endocytosis” (Nature Communications, 2019).
Where no end group is shown, it is not given here.

Experiments:
[1] = system: clathrin mediated endocytosis (TfR-SEP) in NIH 3T3 cells; experiment: ppH assay combined with patch-clamp dialysis; assay type: cell-based; conditions: for event frequency ratio f = FWC/FCA: average ± SEM, SEM
Experimental: To do so, we monitored cellular endocytic activity using the ppH assay with new developments for fully automated analysis on a large number of cells (See “Methods” and Supplementary Fig. 4). We combined this assay, which monitors in real time the endocytic activity of cells, with the patch-clamp technique in order to dialyse the relevant peptide at a known concentration inside the cellular cytoplasm to inhibit endocytosis acutely. Each recording consisted of 5 min in cell-attached mode (CA) with no dialysis followed by 10 min in whole cell mode (WC) during which the inhibitors were dialysed (Fig. 5a, b). Each recording therefore had its own internal control condition, i.e., the cell-attached mode, from which we obtained the frequency ratio f = FWC/FCA, where F is the event frequency recorded during the indicated mode. Of note, the electrical parameters of patch clamp recordings were similar in all conditions (Supplementary Fig. 5). To assess the innocuousness of this assay, we monitored the endocytic activity of unperturbed cells vs. cells dialysed with a control solution (see methods for composition). Patching the cells minimally affected their endocytic activity over a 10 min period (event frequency f = 67.3 ± 4.3%, n = 60, vs. 90.7 ± 14.9% in no patching recordings, n = 8, p = 0.58).
NIH 3T3 cells (ECACC 93061524) were cultured in DMEM supplemented with 1% sodium pyruvate, 1% glutamax and 10% fetal calf serum (Invitrogen). Cells were incubated at 37 °C in 5% CO2 until use and subcultured every 2 to 4 days for maintenance up to passage 20. Cells were transfected with 1.5 μg of TfR-SEP plasmid 24 h prior to imaging and patch clamp. Care was taken to find the right balance between sufficient fluorescent signal to allow for proper imaging and reasonable overexpression to diminish potential saturation artefacts. Best results were obtained using Fugene 6 (Promega) as the transfection reagent but Lipofectamine 2000 (Invitrogen) has also been used in this study due to a temporary arrest of Fugene 6 production by the provider. All transfections were performed according to the manufacturers’ recommendations. Four to eight hours after transfection, cells were seeded at a density of ~70,000 cells ml^−1 on 18 mm glass coverslips coated with poly-L-lysine (3 min application of 0.1 mM polylysine (Sigma P2636) in borate buffer, pH 8.0 followed by a quick rinse in PBS) and used the next day.
Fast solution exchange was controlled by electro-valves (Lee company) connected to a theta glass pipette (TG150, Harvard Apparatus) pulled to ∼100-μm tip size using a vertical puller (Narishige, World Precision Instruments) placed above the recorded cell. Cells were alternatively perfused with HEPES or MES buffered saline solutions (HBS/MBS) containing (in mM): 135 NaCl, 5 KCl, 0.4 MgCl2, 1.8 CaCl2, 1 D-glucose and 20 HEPES or MES. The pH was adjusted to 7.4 or 5.5 using NaOH and osmolarity to 310–315 mOsm L^−1 with NaCl.
(§1) Cells were patched with pipettes made of borosilicate glass (GC150F, Harvard Apparatus) and pulled with a vertical Narishige puller (World Precision Instruments). The solution contained (in mM): 130–140 KCH3SO3, 1 EGTA, 0.1 CaCl2, 10–20 HEPES, 4 ATP (sodium or magnesium salt), 0.4 Na-GTP (or GTPγS when indicated), 5 phosphocreatine and 3 sodium ascorbate. pH was adjusted to 7.2 using KOH and osmolarity to ~300 mOsm L^−1. Sodium ascorbate was omitted in earlier recordings but was added for better stability. Chloride ions either came from 2 mM KCl, 10 mM NaCl or 4 mM MgCl2 (when Na-ATP was used) in various trials. All salts were purchased from Sigma-Aldrich. Cells were voltage-clamped at −60 mV with an EPC10 amplifier (HEKA) with series resistance and cell capacitance estimation every 4 s in the whole cell mode. The digital triggers of the amplifier were used to drive the electrovalves for pH changes. […]

[2] = system: membrane capacitance of NIH 3T3 cells (balance between exocytosis and endocytosis); experiment: Cell capacitance in whole cell patch-clamp; assay type: cell-based; conditions: 10th minute over 1st minute of whole cell recording; peptides 1 mM; paired t-test
Experimental: as §1, with “changes. Cell viability and dialysis efficiency were made sure of by monitoring […] throughout the recording using the Patchmaster software (HEKA): series resistance should remain below 10 MΩ and holding current should remain above −100 pA. If either of these criteria was not respected (except holding current for recordings in GTPγS, see Supplementary Fig. 3D), the recording was not considered for analysis. On a given experimental day at least one control recording (i.e. without any peptide) was performed to ensure recording quality. All these recordings were pooled in the ‘control’ condition (n = 63 on 42 experimental days).” for “changes.”
Supplementary Figure 5: Characteristics of the whole cell recordings in the different conditions of this study. A, Scheme of the equivalent electrical circuit of a cell recorded in the whole cell configuration. […]
This is likely due to the activation of GTP dependent trimeric G proteins which activate various channels in the presence of GTPγS, thereby increasing the holding current. […] F, Ratios of Cm recorded during the 10 th minute of recording over Cm recorded during the 1st minute. […]

[3] = target: dD15-N (divalent peptide: two D15 motifs linked through their N termini by PEG linkers); experiment: SPR; biotinylated peptides immobilised (50-90 RU) on biotin CAPture chips, GST-amphSH3 or Ntr-bSUMO-amphSH3 as analyte; 25 °C; 10 mM sodium phosphate pH 7.4, 150 mM NaCl, 0.01% Tween-20; single cycle kinetics, 1:1 Langmuir fit, estimated KDs
[4] = target: GST-amphSH3 (SH3 domain of murine amphiphysin1 fused to glutathione S-transferase) (not stated | murine) (UniProt Q7TQF7); experiment: SEC; analytical size exclusion chromatography, Superdex200 Increase 10/300 GL, PBS + 0.01% Tween-20, 0.75 mL/min
[5] = system: β2 adrenergic receptor internalization in BSC-1 cells; experiment: β adrenergic receptor internalization assay, β2AR; assay type: cell-based; conditions: 30 µM, 20 min pre-treatment, isoproterenol-induced
[6] = system: β1 adrenergic receptor internalization in BSC-1 cells; experiment: β adrenergic receptor internalization assay, β1AR; assay type: cell-based; conditions: 30 µM, 20 min pre-treatment, isoproterenol-induced
uptake of shiga toxin B = assay type: cell-based
[7] = system: uptake of cholera toxin B; assay type: cell-based
[8] = target: D44 peptide (derived from the dynamin1 PRD, bears motifs A and B); experiment: SPR; biotinylated peptides immobilised (50-90 RU) on biotin CAPture chips, SUMO-amphSH3 as analyte; 25 °C; 10 mM sodium phosphate pH 7.4, 150 mM NaCl, 0.01% Tween-20; steady-state (equilibrium) analysis
[9] = target: dD15-N (divalent peptide: two D15 motifs linked through their N termini by PEG linkers); experiment: as above
[10] = target: dD15-N (divalent peptide: two D15 motifs linked through their N termini by PEG linkers); experiment: as above; remark: listed apart in the source
[11] = target: T1, SUMO-amphSH3 (SH3 domain of murine amphiphysin1 fused to the small ubiquitin-like modifier) (murine, UniProt Q7TQF7 607-686); experiment: as above; conditions: both partners purified
T1 construct: amphiphysin 1, mouse, SH3 domain, residues 607-686, subcloned from pAmph1-mCherry into a modified pET-SUMO vector with a TEV site after the SUMO tag; A TEV cleavage site and multiple cloning site lie between SUMO and the SH3 domain; Monomer by SEC; also called SUMO-SH3; monomeric amphSH3; source: E. coli BL21-CodonPlus (DE3)-RIPL, auto-induction at 16 °C, purified (Ni-NTA, SEC); not shown: SUMO, …
T1 sequence (looked up): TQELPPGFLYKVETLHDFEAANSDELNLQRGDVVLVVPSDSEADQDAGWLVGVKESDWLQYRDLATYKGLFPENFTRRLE

Molecule: Ac-YALGGAPPVPSRPGASPDPFGPPPQVPSRPNRAPPGVPRITISDP-NH2 (N-terminus and C-terminus assumed) [D44]
- event frequency ratio f = FWC/FCA ([1]; 100 µM peptide in patch pipette, event frequency 8–10 min whole cell over 3–5 min cell attached, same cell, n = 13 (D15)): 41.4 ± 9.6%
- event frequency ratio f = FWC/FCA ([1]; 1 mM peptide in patch pipette, event frequency 8–10 min whole cell over 3–5 min cell attached, same cell, n = 22 (D15), 15 (D44), 6 (dD15-C)): 20.6 ± 5.2%
- inhibition of endocytosis on dialysis ([1]; peptide dialysed through patch pipette, 3T3 cells, ppH assay): fully inhibited CCV formation
- change of Cm, Cm(10')/Cm(1') [2]: no significant decrease in Cm

Molecule: GST-amphSH3 (SH3 domain of murine amphiphysin1 fused to glutathione S-transferase) (from UniProt Q7TQF7 607-686) (domain or fragment)
- Kd [3]: 0.509 µM
- stoichiometry N [4]: 2

Molecule: Nc1nc2c(ncn2[C@@H]2O[C@H](COP(=O)(O)OP(=O)(O)OP(O)(O)=S)[C@@H](O)[C@H]2O)c(=O)[nH]1 [GTPγS, reference compound]
- event frequency ratio f = FWC/FCA ([1]; GTP replaced by GTPγS in the pipette solution, n = 4): 11.2 ± 4.1%
- change of Cm, Cm(10')/Cm(1') [2]: no significant decrease in Cm

Molecule: Ntr-bSUMO-amphSH3 complex (biotinylated SUMO-amphSH3 bound to tetrameric neutravidin) (from UniProt Q7TQF7 607-686)
- Kd [3]: 0.0045 µM

Molecule: O=C(N/N=C/c1cc(O)c(O)cc1O)c1cc2ccccc2cc1O [Dyngo4a]
- effect on β2AR internalization [5]: fully block
- effect on β1AR internalization [6]: fully block
- inhibition of shiga toxin B uptake (uptake of shiga toxin B): only partially sensitive to inhibition
- inhibition of cholera toxin B uptake [7]: only partially sensitive to inhibition

B1: SUMO-amphSH3 (SH3 domain of murine amphiphysin1 fused to the small ubiquitin-like modifier) (domain or fragment)
chain: T1 sequence (looked up)
- Kd [8]: 37 µM
- Kd [9]: 66 µM
- Kd [10]: 65 µM

B2: D15 peptide (monovalent, from the dynamin1 PRD, holds motif B) (peptide)
chain: PPPQVPSRPNRAPPG-NH2
modifications: also: N-terminal biotin via TTDS spacer (biotinylated form) or N-terminal acetyl (form used in cells)
- Kd [11]: 102 ± 2 µM
